From the NIST ThermoML archive (doi:10.1016/j.jct.2013.11.038)
Where “and” joins values, the source holds several entries; their conditions need not be identical. Identical values can stand only once. ± gives the expanded uncertainty stated by the source.

What was measured:
[1] = molar heat capacity at constant pressure; conditions: 101.33 kPa, Crystal, Large sample (1 g) DSC
[2] = Crystal; for vapor or sublimation pressure: Calculated from knudsen effusion weight loss; for Normal melting temperature: DTA
[3] = Molar enthalpy of transition or fusion; conditions: Crystal; DSC

Structure (SMILES): O=C1c2ccccc2-c2cccc3cccc1c23 [7H-benz[de]anthracen-7-one]
- molar heat capacity at constant pressure ([1]; 300.47 K): 257.2 ± 11 J/K/mol
- molar heat capacity at constant pressure ([1]; 305.43 K): 262.2 ± 11 J/K/mol
- molar heat capacity at constant pressure ([1]; 310.4 K): 265.7 ± 11 J/K/mol
- molar heat capacity at constant pressure ([1]; 315.36 K): 270.5 ± 12 J/K/mol
- molar heat capacity at constant pressure ([1]; 320.32 K): 275 ± 12 J/K/mol
- vapor or sublimation pressure ([2]; 360.04 K): 5.7e-06 ± 3e-07 kPa [middle of 4 runs]
- vapor or sublimation pressure ([2]; 369.32 K): 1.67e-05 ± 9e-07 kPa [middle of 4 runs]
- vapor or sublimation pressure ([2]; 380.12 K): 5.13e-05 ± 2.6e-06 kPa [middle of 6 runs]
- vapor or sublimation pressure ([2]; 390.32 K): 0.0001425 ± 7.3e-06 kPa [middle of 6 runs]
- vapor or sublimation pressure ([2]; 400.17 K): 0.0003806 ± 1.9e-05 kPa [middle of 7 runs]
- vapor or sublimation pressure ([2]; 410.37 K): 0.0009607 ± 4.8e-05 kPa [middle of 6 runs]
- Normal melting temperature [2]: 173.63 ± 2 °C
- Molar enthalpy of transition or fusion [3]: 6.3 ± 0.179 kcal/mol

Structure (SMILES): O=C(O)c1ccccc1 [benzoic acid]
- molar heat capacity at constant pressure ([1]; 308.15 K): 152.1 ± 6.5 J/K/mol
- molar heat capacity at constant pressure ([1]; 318.15 K): 157.3 ± 6.7 J/K/mol
- molar heat capacity at constant pressure ([1]; 328.15 K): 161.6 ± 6.9 J/K/mol
- molar heat capacity at constant pressure ([1]; 338.15 K): 166.9 ± 7.1 J/K/mol
- molar heat capacity at constant pressure ([1]; 348.15 K): 170.8 ± 7.2 J/K/mol
- molar heat capacity at constant pressure ([1]; 358.15 K): 175.6 ± 7.5 J/K/mol
- molar heat capacity at constant pressure ([1]; 368.15 K): 180 ± 7.6 J/K/mol
- molar heat capacity at constant pressure ([1]; 378.15 K): 186.9 ± 7.9 J/K/mol
- vapor or sublimation pressure ([2]; 269.3 K): 2.1e-06 ± 1e-07 kPa and 2.2e-06 ± 1e-07 kPa
- vapor or sublimation pressure ([2]; 275.04 K): 5.1e-06 ± 3e-07 kPa and 5e-06 ± 3e-07 kPa and 4.9e-06 ± 3e-07 kPa
- vapor or sublimation pressure ([2]; 281.33 K): 1.24e-05 ± 7e-07 kPa [middle of 4 runs]
- vapor or sublimation pressure ([2]; 287.28 K): 2.71e-05 ± 1.4e-06 kPa [middle of 7 runs]
- vapor or sublimation pressure ([2]; 293.19 K): 5.78e-05 ± 3e-06 kPa [middle of 6 runs]
- vapor or sublimation pressure ([2]; 299.18 K): 0.0001196 ± 6.2e-06 kPa [middle of 7 runs]
- vapor or sublimation pressure ([2]; 305.18 K): 0.0002454 ± 1.3e-05 kPa [middle of 7 runs]
- vapor or sublimation pressure ([2]; 311.17 K): 0.0004925 ± 2.5e-05 kPa [middle of 7 runs]
- vapor or sublimation pressure ([2]; 317.13 K): 0.0009533 ± 4.8e-05 kPa [middle of 6 runs]
- Normal melting temperature [2]: 122.22 ± 2 °C
- Molar enthalpy of transition or fusion [3]: 4.28 ± 0.127 kcal/mol

Structure (SMILES): O=C(Oc1ccccc1)Oc1ccccc1 [diphenyl carbonate]
- vapor or sublimation pressure ([2]; 302.18 K): 2.22e-05 ± 1.2e-06 kPa [middle of 5 runs]
- vapor or sublimation pressure ([2]; 308.17 K): 5.05e-05 ± 2.6e-06 kPa [middle of 5 runs]
- vapor or sublimation pressure ([2]; 314.32 K): 0.0001144 ± 5.9e-06 kPa [middle of 7 runs]
- vapor or sublimation pressure ([2]; 320.25 K): 0.0002424 ± 1.3e-05 kPa [middle of 7 runs]
- vapor or sublimation pressure ([2]; 326.23 K): 0.0005075 ± 2.6e-05 kPa [middle of 7 runs]
- vapor or sublimation pressure ([2]; 332.24 K): 0.001043 ± 0.00011 kPa [middle of 6 runs]

Structure (SMILES): CCCCCCCCCCCCCCCCCC [octadecane]
- molar heat capacity at constant pressure ([1]; 283.85 K): 448.6 ± 19 J/K/mol
- molar heat capacity at constant pressure ([1]; 285.5 K): 455.2 ± 19 J/K/mol
- molar heat capacity at constant pressure ([1]; 287.15 K): 460.7 ± 20 J/K/mol
- molar heat capacity at constant pressure ([1]; 288.81 K): 467.3 ± 20 J/K/mol
- molar heat capacity at constant pressure ([1]; 290.46 K): 472.4 ± 20 J/K/mol
- vapor or sublimation pressure ([2]; 286.34 K): 2e-06 ± 1e-07 kPa [middle of 4 runs]
- vapor or sublimation pressure ([2]; 289.28 K): 3.1e-06 ± 2e-07 kPa [middle of 4 runs]
- vapor or sublimation pressure ([2]; 292.27 K): 5.9e-06 ± 3e-07 kPa [middle of 4 runs]
- vapor or sublimation pressure ([2]; 295.17 K): 1.02e-05 ± 6e-07 kPa and 1.07e-05 ± 6e-07 kPa and 1.01e-05 ± 6e-07 kPa
- vapor or sublimation pressure ([2]; 297.99 K): 1.9e-05 ± 1e-06 kPa [middle of 5 runs]
- Normal melting temperature [2]: 28.31 ± 2 °C
- Molar enthalpy of transition or fusion [3]: 14.7 ± 0.406 kcal/mol
